The target in assay [1] is T1, endogenous IKZF1 in Jurkat cells (Homo sapiens, UniProt Q13422+Q96SW2).
T1 construct: endogenous in cells; host or cells: Jurkat (untransduced for immunostaining; WEIS-EGFP-transduced for the blot)
The experiment in a line: Endogenous IKZF1 immunostaining, fluorescent antibody flow cytometry assay. It is filed as cell-based. The settings on record: 18 h. As for the experimental part:
As we sought to screen a large number of mutant ZF degrons with different mutation combinations, we pursued a library screen approach similar to that previously employed by Sievers et al. and Jan et al. , Only the most promising compounds from the original set of 36 were used for the library screen. To help narrow the candidates, a subset of compounds was tested for endogenous IKZF1 degradation in Jurkat cells using a fluorescent antibody flow cytometry assay (Figure S5). […] Thalidomide and lenalidomide were also included as controls.
Endogenous IKZF1 Immunostaining
37 °C and 5% CO2. Following incubation, cells were stained with LIVE/DEAD™ Fixable Aqua Dead Cell Stain (Thermo) diluted 1000X in PBS for 30 min at room temperature and then incubated with Human TruStain FcX block (Biolegend) diluted 40X in PBS + 1% FBS (Gibco) for 10 min at room temperature. Intranuclear staining of IKZF1 was carried out using the Transcription Factor Buffer Set (BD Bioscience) according to the manufacturer's protocol and staining with IKZF1 AF488 antibody (clone R32-1149, BD Bioscience) diluted 40X for 30 minutes at room temperature. Cells were acquired on a Cytoflex S (Beckman Coulter) and data analysed using FlowJo 10.8.1 9 (BD).

The target of assay [2] is T2, Q147A mutant degron (ANQS) fused to EGFP (Homo sapiens, UniProt Q96SW2+Q9UKT9, Q147A).
T2 construct: pLVX-Sprout-IKZF3 130-189aa Q147A (ANQS); expressed in transfected cells
T2 sequence (Q9UKT9 130-189 Q147A): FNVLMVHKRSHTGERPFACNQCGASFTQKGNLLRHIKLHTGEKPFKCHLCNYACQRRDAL
T2 sequence (Q96SW2 whole entry, the tested form may be a part): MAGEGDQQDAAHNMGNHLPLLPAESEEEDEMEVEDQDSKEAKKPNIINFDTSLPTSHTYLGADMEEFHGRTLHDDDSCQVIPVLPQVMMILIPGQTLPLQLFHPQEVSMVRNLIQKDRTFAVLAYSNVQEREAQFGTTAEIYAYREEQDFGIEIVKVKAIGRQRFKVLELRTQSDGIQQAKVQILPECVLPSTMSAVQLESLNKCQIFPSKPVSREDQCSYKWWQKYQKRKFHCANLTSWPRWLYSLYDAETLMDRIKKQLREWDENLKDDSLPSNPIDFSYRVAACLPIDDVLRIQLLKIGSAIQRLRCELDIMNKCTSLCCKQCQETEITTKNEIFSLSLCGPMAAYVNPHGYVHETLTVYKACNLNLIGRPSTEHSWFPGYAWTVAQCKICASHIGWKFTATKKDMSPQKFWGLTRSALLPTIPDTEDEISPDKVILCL
T2 sequence (Q16531 whole entry partner, the tested form may be a part): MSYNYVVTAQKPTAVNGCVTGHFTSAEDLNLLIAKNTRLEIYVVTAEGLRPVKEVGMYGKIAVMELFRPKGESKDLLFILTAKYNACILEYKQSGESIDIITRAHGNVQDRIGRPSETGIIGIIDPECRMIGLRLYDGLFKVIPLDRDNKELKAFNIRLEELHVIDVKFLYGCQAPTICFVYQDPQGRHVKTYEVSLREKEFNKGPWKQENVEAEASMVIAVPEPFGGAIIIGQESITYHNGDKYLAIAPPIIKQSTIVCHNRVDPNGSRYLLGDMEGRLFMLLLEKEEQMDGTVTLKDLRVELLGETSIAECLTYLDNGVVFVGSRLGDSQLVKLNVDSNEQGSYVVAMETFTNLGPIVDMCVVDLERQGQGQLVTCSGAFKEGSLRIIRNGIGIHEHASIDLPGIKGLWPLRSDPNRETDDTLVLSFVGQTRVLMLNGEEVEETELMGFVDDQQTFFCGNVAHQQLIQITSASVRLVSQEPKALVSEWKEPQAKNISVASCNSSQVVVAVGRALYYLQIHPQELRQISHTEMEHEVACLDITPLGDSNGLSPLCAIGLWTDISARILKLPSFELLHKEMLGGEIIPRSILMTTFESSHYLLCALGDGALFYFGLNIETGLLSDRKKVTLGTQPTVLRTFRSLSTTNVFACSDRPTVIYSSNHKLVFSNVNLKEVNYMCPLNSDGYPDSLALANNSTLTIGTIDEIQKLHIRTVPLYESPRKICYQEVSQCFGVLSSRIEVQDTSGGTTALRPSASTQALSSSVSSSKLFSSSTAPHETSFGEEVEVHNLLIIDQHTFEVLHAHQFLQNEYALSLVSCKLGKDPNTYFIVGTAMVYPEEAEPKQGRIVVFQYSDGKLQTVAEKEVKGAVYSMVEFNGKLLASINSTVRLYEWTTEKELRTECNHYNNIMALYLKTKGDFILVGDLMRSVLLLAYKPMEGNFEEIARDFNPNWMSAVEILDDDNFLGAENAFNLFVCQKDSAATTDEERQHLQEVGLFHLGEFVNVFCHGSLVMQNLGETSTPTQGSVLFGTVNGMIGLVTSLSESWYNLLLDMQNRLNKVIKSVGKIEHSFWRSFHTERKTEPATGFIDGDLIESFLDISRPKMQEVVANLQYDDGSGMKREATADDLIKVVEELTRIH
Briefly: Ratiometric EGFP:mCherry flow cytometry degradation assay, 18 h. It is filed as cell-based. To be noted: Jurkat, read-out: DMax Q147A/%. (In flow cytometry, cells or beads pass a laser one at a time.)

Assay [3] has as its system library of 8380 IKZF3 degrons fused to EGFP in Jurkat cells. The experiment in a line: Pooled mutant ZF degron library screen (FACS EGFPlow vs EGFP+, NGS), 18 h.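 For logFC: Log2 fold change of EGFPlow over EGFP+ representation.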 The format is cell-based, human.
Another assay deals with MM.1S cells. The experiment in a line: TMTpro quantitative proteomics, 16 h. To be noted: 1 μM.
Another assay concerns Jurkat cells. The experiment in a line: TMTpro quantitative proteomics, 16 h. The settings on record: Jurkat whole cell extracts, TMTpro SPS-MS3.
In assay [4] the target is T3, endogenous IKZF3 in Jurkat cells (Homo sapiens, UniProt Q96SW2+Q9UKT9).
T3 construct: endogenous in cells; host or cells: Jurkat (transduced with ZF-EGFP constructs, or untransduced)
T3 sequence (Q9UKT9 whole entry): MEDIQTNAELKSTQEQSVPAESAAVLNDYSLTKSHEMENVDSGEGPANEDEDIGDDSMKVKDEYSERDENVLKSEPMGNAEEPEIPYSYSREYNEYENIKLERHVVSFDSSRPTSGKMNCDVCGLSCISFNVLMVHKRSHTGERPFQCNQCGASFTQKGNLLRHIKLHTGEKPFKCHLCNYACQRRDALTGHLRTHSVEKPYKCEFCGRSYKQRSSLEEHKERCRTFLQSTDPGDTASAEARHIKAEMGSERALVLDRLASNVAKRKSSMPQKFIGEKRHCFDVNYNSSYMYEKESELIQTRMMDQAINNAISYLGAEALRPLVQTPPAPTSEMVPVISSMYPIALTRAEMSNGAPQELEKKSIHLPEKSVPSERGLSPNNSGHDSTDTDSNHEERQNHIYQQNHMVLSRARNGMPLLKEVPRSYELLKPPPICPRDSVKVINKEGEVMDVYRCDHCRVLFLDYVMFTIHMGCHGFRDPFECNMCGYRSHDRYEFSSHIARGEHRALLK
T3 sequence (Q96SW2 whole entry): as the sequence (Q96SW2 whole entry, the tested form may be a part) above
T3 sequence (Q16531 whole entry partner): as the sequence (Q16531 whole entry partner, the tested form may be a part) above
Briefly: Western blot for endogenous IKZF3. The format is cell-based. A general note: A western blot detects proteins with antibodies after separation by electrophoresis.

Assay [5] deals with T4, ZF-EGFP fusion protein with the HEIP, AEVK, WEIS, or WT ZF degron (Homo sapiens, UniProt Q9UKT9).
T4 construct: The degron spans residues 130–189 of IKZF3; expressed in transfected cells; host or cells: Jurkat, lentivirally transduced, presorted mCherry+
T4 sequence (Q96SW2 whole entry, the tested form may be a part): as the sequence (Q96SW2 whole entry, the tested form may be a part) above
T4 sequence (Q9UKT9 130-189): as the sequence (Q9UKT9 130-189 Q147A) above, with A18Q counted along it
T4 sequence (Q16531 2-1140, further chain): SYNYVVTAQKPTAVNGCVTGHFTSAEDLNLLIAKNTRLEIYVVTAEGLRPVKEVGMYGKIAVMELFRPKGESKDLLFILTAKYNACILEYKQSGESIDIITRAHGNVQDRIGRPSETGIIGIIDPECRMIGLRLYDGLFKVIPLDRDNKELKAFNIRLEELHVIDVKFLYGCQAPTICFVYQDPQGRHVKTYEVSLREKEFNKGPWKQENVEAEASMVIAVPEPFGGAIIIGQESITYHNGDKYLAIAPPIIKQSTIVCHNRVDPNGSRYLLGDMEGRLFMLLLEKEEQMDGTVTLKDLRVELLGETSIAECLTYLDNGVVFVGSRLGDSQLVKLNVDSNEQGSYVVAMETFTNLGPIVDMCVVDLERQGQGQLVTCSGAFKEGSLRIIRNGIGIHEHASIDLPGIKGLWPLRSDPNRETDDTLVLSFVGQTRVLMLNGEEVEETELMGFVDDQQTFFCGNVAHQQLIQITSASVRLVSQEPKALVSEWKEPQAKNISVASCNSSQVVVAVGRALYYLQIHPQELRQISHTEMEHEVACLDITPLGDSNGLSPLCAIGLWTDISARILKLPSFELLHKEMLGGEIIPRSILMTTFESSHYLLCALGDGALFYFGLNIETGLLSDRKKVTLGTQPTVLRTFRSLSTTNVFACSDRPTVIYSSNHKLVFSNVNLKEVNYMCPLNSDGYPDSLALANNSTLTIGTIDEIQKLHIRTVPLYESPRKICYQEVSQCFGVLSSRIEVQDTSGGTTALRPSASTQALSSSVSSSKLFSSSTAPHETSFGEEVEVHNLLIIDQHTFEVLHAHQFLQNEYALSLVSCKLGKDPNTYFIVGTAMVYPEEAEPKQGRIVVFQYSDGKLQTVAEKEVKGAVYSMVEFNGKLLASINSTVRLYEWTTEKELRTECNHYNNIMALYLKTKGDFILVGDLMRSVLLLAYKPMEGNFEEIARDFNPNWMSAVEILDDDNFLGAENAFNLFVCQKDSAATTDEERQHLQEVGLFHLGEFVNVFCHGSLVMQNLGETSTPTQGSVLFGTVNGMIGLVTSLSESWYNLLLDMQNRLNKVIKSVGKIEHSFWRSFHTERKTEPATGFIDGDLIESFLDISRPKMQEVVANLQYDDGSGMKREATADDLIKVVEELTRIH
The experiment in a line: Western blot for ZF-EGFP fusion protein. It is filed as cell-based.

The mark [6] stands for this setting: WT degron, residues 146/147/149/150/152/153/154/155/167: FQNQGASFL
[7] abbreviates: degron residues 146/147/149/150/152/153/154/155/167: FADIGAAFL
Setting [8] is: degron residues 146/147/149/150/152/153/154/155/167: FADIGACFL
[9] abbreviates: degron residues 146/147/149/150/152/153/154/155/167: FADIGADFL
Setting [10] is: degron residues 146/147/149/150/152/153/154/155/167: FADIGAEFL
Setting [11] is: degron residues 146/147/149/150/152/153/154/155/167: FREIGAPFL
[12] abbreviates: degron residues 146/147/149/150/152/153/154/155/167: FYEVGACFL
[13] abbreviates: protein AADAT isoform 2 (Q8N5Z0-2).

“And” between values parts separate entries of the source, which are not always exact repeats. Equal entries are not always repeated. Where two headings read alike, the source gives them in different places.

T1 sequence (Q13422 whole entry): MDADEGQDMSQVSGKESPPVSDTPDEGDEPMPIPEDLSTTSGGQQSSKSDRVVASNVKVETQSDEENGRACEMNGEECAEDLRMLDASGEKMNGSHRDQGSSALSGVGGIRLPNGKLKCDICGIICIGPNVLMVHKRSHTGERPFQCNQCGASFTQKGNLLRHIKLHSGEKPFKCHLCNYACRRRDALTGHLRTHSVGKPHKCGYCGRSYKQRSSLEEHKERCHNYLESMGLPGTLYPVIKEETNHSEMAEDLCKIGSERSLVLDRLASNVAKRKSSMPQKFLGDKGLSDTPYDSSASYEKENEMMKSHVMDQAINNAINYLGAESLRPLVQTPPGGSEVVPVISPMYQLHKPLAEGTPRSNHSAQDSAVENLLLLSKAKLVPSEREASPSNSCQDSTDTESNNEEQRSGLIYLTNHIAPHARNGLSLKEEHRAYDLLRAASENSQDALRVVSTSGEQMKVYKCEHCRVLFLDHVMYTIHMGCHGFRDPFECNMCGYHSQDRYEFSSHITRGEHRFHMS
T1 sequence (Q96SW2 whole entry): as the sequence (Q96SW2 whole entry, the tested form may be a part) above
T1 sequence (Q16531 whole entry partner): as the sequence (Q16531 whole entry partner, the tested form may be a part) above
Protocol for MM.1S cells: Quantitative proteomics screens were carried out in untransduced Jurkat cells, embryonic stem cells (ESCs), and the multiple myeloma cell line, MM.1S. We used Jurkat cells, as our work up to this point had employed this cell line, and we selected ESCs and MM.1S cells as they express known CRBN neosubstrates, including IKZF1, IKZF3, RAB28, RNF166, SALL4, ZFP91, and ZNF827.
Proteomics - cell lysis and protein digestion
The viability of Jurkat cells was tested after 16-h treatment with corresponding chemicals
viable cells in each condition. Next, ~10^7 cells per condition were collected by centrifugation (1000 rpm), washed twice with ice-cold PBS, and lysed in RIPA buffer [50 mM HEPES pH 7.4, 150 mM NaCl, 1% sodium deoxycholate, 1% NP-40, 0.1% SDS, 10 mM sodium pyrophosphate, 10 mM β-glycerophosphate, 2.5 mM MgCl2, 200 µM TCEP, phosphatase and protease inhibitor cocktail (in-house)], to produce whole cell extracts. Whole-cell extracts were sonicated, and protein concentrations were determined using the Bradford assay. Protein extracts (100 µg) were subjected to disulfide bond reduction with 5 mM TCEP (10 min) and alkylation with 25 mM chloroacetamide (20 min). Methanol–chloroform precipitation was performed prior to protease digestion. […]

On to `O=C1CCC(N2C(=O)c3cccc(NC(c4ccccc4)c4ccccc4)c3C2=O)C(=O)N1` (centres unmarked) [Compound 33], for which the “degradation of endogenous IKZF1” value in assay [1] is given as “modest degradation of IKZF1”. Further, the Dmax in assay [2] (18 h, Fig 2B) is 97%. Also, the Log2FC in assay [3] (setting [6]) is -1.2556; in assay [3] (degron residues 146/147/149/150/152/153/154/155/167: FGPVGAFFL), 3.1139; in assay [3] (degron residues 146/147/149/150/152/153/154/155/167: FMEIGAAFL), 3.1949; in assay [3] (degron residues 146/147/149/150/152/153/154/155/167: FMEIGAPFL), 3.1328; in assay [3] (degron residues 146/147/149/150/152/153/154/155/167: FMEVGAPFL), 3.1157; in assay [3] (degron residues 146/147/149/150/152/153/154/155/167: FMNIGAPFL), 3.2358 and 3.236. Also, the Log2FC in assay [3] (degron residues 146/147/149/150/152/153/154/155/167: FMPIGAPFL) was 3.0896; in assay [3] (degron residues 146/147/149/150/152/153/154/155/167: FMPVGAAFL) it was 3.0783; in assay [3] (degron residues 146/147/149/150/152/153/154/155/167: FMPVGAPFL) it was 3.0869; in assay [3] (degron residues 146/147/149/150/152/153/154/155/167: FRDIGAPFL) it was 3.3226 and 3.323; in assay [3] (degron residues 146/147/149/150/152/153/154/155/167: FRDVGAPFL) it was 3.2095; in assay [3] (setting [11]) it was 3.3123. In addition, the Log2FC in assay [3] (degron residues 146/147/149/150/152/153/154/155/167: FREVGAPFL) was 3.3928 and 3.393; in assay [3] (degron residues 146/147/149/150/152/153/154/155/167: FRPVGAPFL) it was 3.2684 and 3.268; in assay [3] (degron residues 146/147/149/150/152/153/154/155/167: FYEIGAQFL), 3.1346; in assay [3] (setting [12]), 3.1049; in assay [3] (degron residues 146/147/149/150/152/153/154/155/167: LCPIGFTCL) it was 3.1410; in assay [3] (degron residues 146/147/149/150/152/153/154/155/167: LCPIGFYCL), 3.1590. Besides, the Log2FC in assay [3] (degron residues 146/147/149/150/152/153/154/155/167: LYEIGFSCL) came to 3.0997; in assay [3] (degron residues 146/147/149/150/152/153/154/155/167: LYEIGFTCL), 3.1905; in assay [3] (degron residues 146/147/149/150/152/153/154/155/167: LYPIGFSCL), 3.0902. Besides, the logFC is on record as -0.4744 in assay [3] (setting [7]), -0.1939 in assay [3] (setting [8]), -2.168 in assay [3] (setting [9]) and -2.426 in assay [3] (setting [10]).

In the case of `O=C1CCC(N2C(=O)c3ccc(N4CCOCC4)cc3C2=O)C(=O)N1` (centres unmarked) [Compound 22], in assay [1], the “degradation of endogenous IKZF1” value is reported as “did not induce degradation of endogenous IKZF1”. Also, the Dmax in assay [2] (18 h, Fig 2B) was 76%. Besides, the Log2FC in assay [3] (setting [6]) was -1.0370; in assay [3] (degron residues 146/147/149/150/152/153/154/155/167: FFEIGACFL), 3.8315; in assay [3] (degron residues 146/147/149/150/152/153/154/155/167: FIPVGAPFL), 3.937; in assay [3] (setting [11]), 3.9835 and 3.984; in assay [3] (degron residues 146/147/149/150/152/153/154/155/167: FWDVGANFL), 3.8903; in assay [3] (degron residues 146/147/149/150/152/153/154/155/167: FWDVGAQFL), 3.8513. The Log2FC was 3.8306 in assay [3] (degron residues 146/147/149/150/152/153/154/155/167: FWEIGAAFL); 3.9298 and 3.93 in assay [3] (degron residues 146/147/149/150/152/153/154/155/167: FWEIGAQFL); 3.9041 in assay [3] (degron residues 146/147/149/150/152/153/154/155/167: FWEVGAAFL); 3.9186 in assay [3] (degron residues 146/147/149/150/152/153/154/155/167: FWEVGAHFL); 3.8571 in assay [3] (degron residues 146/147/149/150/152/153/154/155/167: FWEVGAKFL); 3.8564 in assay [3] (degron residues 146/147/149/150/152/153/154/155/167: FWEVGANFL). Besides, the Log2FC in assay [3] (degron residues 146/147/149/150/152/153/154/155/167: FWPVGANFL) is 3.8155; in assay [3] (degron residues 146/147/149/150/152/153/154/155/167: FWPVGAQFL), 3.9190; in assay [3] (degron residues 146/147/149/150/152/153/154/155/167: FYEIGAKFL), 3.8391; in assay [3] (degron residues 146/147/149/150/152/153/154/155/167: FYEIGATFL) it was 4.0154 and 4.054; in assay [3] (setting [12]), 3.8457; in assay [3] (degron residues 146/147/149/150/152/153/154/155/167: FYEVGANFL), 3.8762. In addition, the Log2FC in assay [3] (degron residues 146/147/149/150/152/153/154/155/167: FYEVGASFL) is 3.8615; in assay [3] (degron residues 146/147/149/150/152/153/154/155/167: FYEVGATFL), 4.1392 and 4.14; in assay [3] (degron residues 146/147/149/150/152/153/154/155/167: LYEIGFRCL) it was 3.9018. Further, the logFC is 2.037 in assay [3] (setting [7]), 0.5955 in assay [3] (setting [8]), -1.619 in assay [3] (setting [9]) and -0.4533 in assay [3] (setting [10]).

Take `Nc1cccc2c1C(=O)N(C1CCC(=O)NC1=O)C2=O` (centres unmarked) [Compound 2, pomalidomide]: the “proteins significantly degraded (quantitative proteomics)” value with MM.1S cells was “IKZF1, IKZF3, and at least 6 other proteins were significantly degraded”. The “Scaled value (to 150), replicate 01” value is 7.144 with Jurkat cells (protein A2M (P01023)), 9.781 with Jurkat cells (protein AAAS (Q9NRG9)), 9.6081 in the assay with Jurkat cells (protein AACS (Q86V21)) and 9.467 with Jurkat cells (setting [13]). For the same compound, the “Scaled value (to 150), replicate 02” value was determined as 8.281 in the assay with Jurkat cells (protein A2M (P01023)), 9.111 in the assay on Jurkat cells (protein AAAS (Q9NRG9)), 10.2184 in the assay on Jurkat cells (protein AACS (Q86V21)) and 10.1133 in the assay with Jurkat cells (setting [13]). In addition, the “Scaled value (to 150), replicate 03” value is 7.913 with Jurkat cells (protein A2M (P01023)), 9.328 with Jurkat cells (protein AAAS (Q9NRG9)), 9.9438 with Jurkat cells (protein AACS (Q86V21)) and 9.458 with Jurkat cells (setting [13]). Besides, in assay [4], the “degradation of endogenous IKZF3 (Western blot)” value is reported as “did cause IKZF3 degradation”. In assay [4], the “endogenous IKZF3 levels (Western blot)” value was “depleted endogenous IKZF3”. Further, the Dmax in assay [2] was 94%. Besides, the “degradation of WT degron-tagged EGFP (Western blot)” value in assay [5] is listed as “induced degradation of EGFP”.

These data come from PMC12645437, “Orthogonal IMiD-Degron Pairs Induce Selective Protein Degradation in Cells” (ACS Chemical Biology, 2025).
